Source: US8410112B2, “Compounds useful as inhibitors of ATR kinase” (Vertex Pharmaceuticals Incorporated, priority 2008, dated 2013)

How the values were obtained:
[1] = target: T1, intracellular ATR (Homo sapiens, UniProt Q13535); assay: Cellular ATR Inhibition Assay (H2AX phosphorylation, immunofluorescence microscopy); assay type: cell-based; conditions: HT29 cells, 2 mM hydroxyurea, percentage of phosphorylated H2AX Ser139-positive nuclei
T1 construct: endogenous in cells; host or cells: HT29
Procedure: Compounds were screened for their ability to inhibit intracellular ATR using an immunofluorescence microscopy assay to detect phosphorylation of the ATR substrate histone H2AX in hydroxyurea treated cells. HT29 cells were plated at 14,000 cells per well in 96-well black imaging plates (BD 353219) in McCoy's 5A media (Sigma M8403) supplemented with 10% foetal bovine serum (JRH Biosciences 12003), Penicillin/Streptomycin solution diluted 1:100 (Sigma P7539), and 2 mM L-glumtamine (Sigma G7513), and allowed to adhere overnight at 37° C. in 5% CO2. Compounds were then added to the cell media from a final concentration of 25 μM in 3-fold serial dilutions and the cells were incubated at 37° C. in 5% CO2. After 15 min, hydroxyurea (Sigma H8627) was added to a final concentration of 2 mM.
After 45 min of treatment with hydroxyurea, the cells were washed in PBS, fixed for 10 min in 4% formaldehyde diluted in PBS (Polysciences Inc 18814), washed in 0.2% Tween-20 in PBS (wash buffer), and permeabilised for 10 min in 0.5% Triton X-100 in PBS, all at room temperature. The cells were then washed once in wash buffer and blocked for 30 min at room temperature in 10% goat serum (Sigma G9023) diluted in wash buffer (block buffer). To detect H2AX phosphorylation levels, the cells were then incubated for 1 h at room temperature in primary antibody (mouse monoclonal anti-phosphorylated histone H2AX Ser139 antibody; Upstate 05-636) diluted 1:250 in block buffer. The cells were then washed five times in wash buffer before incubation for 1 h at room temperature in the dark in a mixture of secondary antibody (goat anti-mouse Alexa Fluor 488 conjugated antibody; Invitrogen A11029) and Hoechst stain (Invitrogen H3570); diluted 1:500 and 1:5000, respectively, in wash buffer. The cells were then washed five times in wash buffer and finally 100 ul PBS was added to each well before imaging.
Cells were imaged for Alexa Fluor 488 and Hoechst intensity using the BD Pathway 855 Bioimager and Attovision software (BD Biosciences, Version 1.6/855) to quantify phosphorylated H2AX Ser139 and DNA staining, respectively. The percentage of phosphorylated H2AX-positive nuclei in a montage of 9 images at 20× magnification was then calculated for each well using BD Image Data Explorer software (BD Biosciences Version 2.2.15). Phosphorylated H2AX-positive nuclei were defined as Hoechst-positive regions of interest containing Alexa Fluor 488 intensity at 1.75-fold the average Alexa Fluor 488 intensity in cells not treated with hydroxyurea. The percentage of H2AX positive nuclei was finally plotted against concentration for each compound and IC50s for intracellular ATR inhibition were determined using Prism software (GraphPad Prism version 3.0cx for Macintosh, GraphPad Software, San Diego Calif., USA).

[2] = target: T2, full-length ATR (Homo sapiens, UniProt Q13535); assay: ATR Inhibition Assay (radioactive-phosphate incorporation); assay type: biochemical; conditions: Ki(app); 5 nM full-length ATR, 10 μM ATP, 800 μM target peptide, 25° C.
T2 construct: in the presence of 5 nM full-length ATR
Method in brief: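 After a 10-min pre-incubation of compound with 5 nM enzyme at 25 °C, ATP was added to start the reaction (final 10 μM [γ-33P]ATP, 800 μM peptide; Tris/HCl pH 7.5, MgCl2, DTT), which ran 24 h. Incorporated 33P was captured on phosphocellulose filters, and Ki(app) was fitted by non-linear regression.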

T2 sequence (Q13535 whole entry): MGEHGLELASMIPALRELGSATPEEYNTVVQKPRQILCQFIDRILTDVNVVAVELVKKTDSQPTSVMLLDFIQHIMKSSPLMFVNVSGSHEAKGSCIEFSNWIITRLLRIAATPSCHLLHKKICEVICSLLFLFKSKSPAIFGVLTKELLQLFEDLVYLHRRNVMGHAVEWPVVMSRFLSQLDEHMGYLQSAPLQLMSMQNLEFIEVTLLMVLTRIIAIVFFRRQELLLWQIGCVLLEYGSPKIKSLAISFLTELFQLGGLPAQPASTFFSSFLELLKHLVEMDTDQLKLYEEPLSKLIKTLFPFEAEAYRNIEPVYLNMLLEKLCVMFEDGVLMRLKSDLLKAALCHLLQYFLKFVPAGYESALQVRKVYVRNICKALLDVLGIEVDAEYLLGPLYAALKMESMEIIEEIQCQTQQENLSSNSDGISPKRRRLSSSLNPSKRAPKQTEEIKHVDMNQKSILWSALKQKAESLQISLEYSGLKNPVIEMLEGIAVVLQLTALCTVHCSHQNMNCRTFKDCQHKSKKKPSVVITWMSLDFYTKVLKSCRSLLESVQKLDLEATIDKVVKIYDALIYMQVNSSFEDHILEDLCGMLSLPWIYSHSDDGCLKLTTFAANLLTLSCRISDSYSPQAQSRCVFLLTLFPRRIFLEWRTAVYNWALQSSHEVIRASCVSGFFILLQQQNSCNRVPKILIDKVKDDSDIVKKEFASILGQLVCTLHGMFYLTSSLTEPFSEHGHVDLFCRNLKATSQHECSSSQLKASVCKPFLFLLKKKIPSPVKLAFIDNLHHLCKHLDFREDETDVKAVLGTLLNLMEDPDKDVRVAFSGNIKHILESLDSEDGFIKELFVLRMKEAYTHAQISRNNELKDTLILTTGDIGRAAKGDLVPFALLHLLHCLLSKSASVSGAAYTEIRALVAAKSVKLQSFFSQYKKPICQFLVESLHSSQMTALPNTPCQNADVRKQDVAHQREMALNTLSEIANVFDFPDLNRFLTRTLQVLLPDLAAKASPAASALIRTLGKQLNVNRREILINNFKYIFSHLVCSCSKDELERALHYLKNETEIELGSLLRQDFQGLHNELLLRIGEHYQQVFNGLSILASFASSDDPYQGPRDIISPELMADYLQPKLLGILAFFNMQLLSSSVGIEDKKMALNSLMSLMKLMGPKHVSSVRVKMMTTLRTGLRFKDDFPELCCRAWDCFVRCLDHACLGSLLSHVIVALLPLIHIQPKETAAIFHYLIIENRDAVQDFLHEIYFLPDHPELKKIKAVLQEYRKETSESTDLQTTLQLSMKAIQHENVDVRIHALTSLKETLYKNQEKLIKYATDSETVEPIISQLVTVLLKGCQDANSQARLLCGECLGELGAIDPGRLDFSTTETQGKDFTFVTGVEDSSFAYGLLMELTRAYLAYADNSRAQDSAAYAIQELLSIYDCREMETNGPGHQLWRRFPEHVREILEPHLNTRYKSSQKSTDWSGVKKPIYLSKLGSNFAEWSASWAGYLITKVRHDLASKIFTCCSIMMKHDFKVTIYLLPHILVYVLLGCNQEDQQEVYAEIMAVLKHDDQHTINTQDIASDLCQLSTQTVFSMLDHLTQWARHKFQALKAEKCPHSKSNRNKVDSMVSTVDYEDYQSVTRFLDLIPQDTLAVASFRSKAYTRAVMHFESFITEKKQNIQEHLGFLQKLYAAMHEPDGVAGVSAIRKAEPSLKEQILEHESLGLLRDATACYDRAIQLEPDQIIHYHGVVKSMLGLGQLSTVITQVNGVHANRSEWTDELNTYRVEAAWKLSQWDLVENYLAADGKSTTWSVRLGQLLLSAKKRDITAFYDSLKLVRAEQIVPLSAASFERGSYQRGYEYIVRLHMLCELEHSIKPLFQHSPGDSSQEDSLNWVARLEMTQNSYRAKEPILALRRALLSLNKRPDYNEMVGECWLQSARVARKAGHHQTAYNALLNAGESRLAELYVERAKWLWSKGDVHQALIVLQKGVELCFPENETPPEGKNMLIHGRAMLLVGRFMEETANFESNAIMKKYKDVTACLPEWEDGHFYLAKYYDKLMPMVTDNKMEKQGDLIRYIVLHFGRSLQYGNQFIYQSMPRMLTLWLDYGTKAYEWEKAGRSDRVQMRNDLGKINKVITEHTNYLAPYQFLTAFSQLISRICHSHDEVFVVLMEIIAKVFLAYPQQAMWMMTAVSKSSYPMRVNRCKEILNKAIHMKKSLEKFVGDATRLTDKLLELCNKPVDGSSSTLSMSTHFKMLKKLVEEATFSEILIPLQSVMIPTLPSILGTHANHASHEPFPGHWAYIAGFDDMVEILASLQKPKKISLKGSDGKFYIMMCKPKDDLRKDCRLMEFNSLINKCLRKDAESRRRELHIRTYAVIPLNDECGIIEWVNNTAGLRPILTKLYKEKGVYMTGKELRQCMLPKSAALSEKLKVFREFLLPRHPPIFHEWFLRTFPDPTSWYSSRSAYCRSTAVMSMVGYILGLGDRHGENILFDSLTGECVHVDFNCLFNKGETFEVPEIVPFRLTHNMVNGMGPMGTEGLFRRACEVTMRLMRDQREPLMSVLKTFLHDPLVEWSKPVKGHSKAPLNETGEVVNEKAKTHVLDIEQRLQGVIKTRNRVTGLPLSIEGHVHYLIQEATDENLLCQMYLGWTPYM
T1 sequence (Q13535 whole entry): as above
T1 sequence (Q8WXE1 whole entry partner): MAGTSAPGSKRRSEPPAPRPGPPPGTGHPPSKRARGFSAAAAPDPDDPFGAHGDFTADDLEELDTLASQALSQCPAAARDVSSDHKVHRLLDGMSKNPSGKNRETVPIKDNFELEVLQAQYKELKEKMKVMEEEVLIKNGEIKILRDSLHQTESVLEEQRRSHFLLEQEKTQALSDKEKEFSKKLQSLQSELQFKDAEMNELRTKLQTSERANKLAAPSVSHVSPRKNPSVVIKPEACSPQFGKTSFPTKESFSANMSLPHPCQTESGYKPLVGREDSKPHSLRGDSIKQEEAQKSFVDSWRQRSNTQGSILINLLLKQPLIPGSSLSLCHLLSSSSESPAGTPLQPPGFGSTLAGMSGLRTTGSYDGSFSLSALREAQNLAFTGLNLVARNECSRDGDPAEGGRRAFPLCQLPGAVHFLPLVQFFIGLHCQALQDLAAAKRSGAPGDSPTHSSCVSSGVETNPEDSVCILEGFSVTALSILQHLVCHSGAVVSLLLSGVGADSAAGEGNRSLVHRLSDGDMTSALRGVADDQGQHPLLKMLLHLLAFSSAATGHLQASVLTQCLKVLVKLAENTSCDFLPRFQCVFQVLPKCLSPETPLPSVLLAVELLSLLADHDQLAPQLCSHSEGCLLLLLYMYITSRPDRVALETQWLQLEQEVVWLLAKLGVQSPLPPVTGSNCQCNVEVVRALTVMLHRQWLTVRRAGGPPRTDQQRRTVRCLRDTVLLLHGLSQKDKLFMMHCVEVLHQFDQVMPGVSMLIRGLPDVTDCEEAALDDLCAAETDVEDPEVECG

SMILES	IC50 [1] [µM]	Ki [2] [µM]
CN(C)S(=O)(=O)N1CC=C(c2cnc(N)c(-c3nc4cccnc4[nH]3)n2)CC1 [Compound I-26, 4-(5-amino-6-(3H-imidazo[4,5-b]pyridin-2-yl)pyrazin-2-yl)-N,N-dimethyl-5,6-dihydropyridine-1(2H)-sulfonamide]	1 to 5	< 0.1
Cc1ccc2nc(-c3nc(-n4ccc(=O)cc4)cnc3N)[nH]c2c1 [Compound I-24, 1-(5-amino-6-(6-methyl-1H-benzo[d]imidazol-2-yl)pyrazin-2-yl)pyridin-4(1H)-one]	1 to 5	< 0.1
CCS(=O)(=O)N1CC=C(c2cnc(N)c(-c3nc4cccnc4[nH]3)n2)CC1 [Compound I-27, 5-(1-(ethylsulfonyl)-1,2,3,6-tetrahydropyridin-4-yl)-3-(3H-imidazo[4,5-b]pyridin-2-yl)pyrazin-2-amine]	< 1	< 0.1
CCS(=O)(=O)N1CC=C(c2cnc(N)c(-c3nnc(-c4ccccc4)o3)n2)CC1 [Compound I-28, 5-(1-(ethylsulfonyl)-1,2,3,6-tetrahydropyridin-4-yl)-3-(5-phenyl-1,3,4-oxadiazol-2-yl)pyrazin-2-amine]	5 to 10	< 0.1
